The target of one assay is T1, rM4 receptors (Rattus norvegicus, UniProt P08485).
T1 construct: expressed in transfected cells; host or cells: CHO cells
T1 sequence (P08485 1-478): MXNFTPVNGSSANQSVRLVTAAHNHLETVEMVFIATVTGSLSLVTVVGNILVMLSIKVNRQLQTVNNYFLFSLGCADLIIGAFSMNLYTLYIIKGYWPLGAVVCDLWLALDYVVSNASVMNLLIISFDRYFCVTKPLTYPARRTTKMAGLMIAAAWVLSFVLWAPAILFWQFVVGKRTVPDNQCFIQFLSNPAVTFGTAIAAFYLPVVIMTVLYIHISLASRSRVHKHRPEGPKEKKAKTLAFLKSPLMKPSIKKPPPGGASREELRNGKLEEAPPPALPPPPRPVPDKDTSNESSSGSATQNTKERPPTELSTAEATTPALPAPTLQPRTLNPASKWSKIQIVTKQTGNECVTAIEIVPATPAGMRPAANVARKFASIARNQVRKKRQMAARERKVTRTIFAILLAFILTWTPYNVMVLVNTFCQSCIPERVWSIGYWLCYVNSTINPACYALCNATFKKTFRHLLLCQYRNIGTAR
Nature of the assay: Rat M4 PAM pERK assay. To be noted: CHO cells expressing rM4; with EC20 of acetylcholine (10 nM final). Type of assay: cell-based.

In a further assay the target is T2, human M4 receptor (Homo sapiens, UniProt P08173).
T2 construct: expressed in transfected cells; host or cells: CHO-K1 cells (membrane preparation)
T2 sequence (P08173 1-479): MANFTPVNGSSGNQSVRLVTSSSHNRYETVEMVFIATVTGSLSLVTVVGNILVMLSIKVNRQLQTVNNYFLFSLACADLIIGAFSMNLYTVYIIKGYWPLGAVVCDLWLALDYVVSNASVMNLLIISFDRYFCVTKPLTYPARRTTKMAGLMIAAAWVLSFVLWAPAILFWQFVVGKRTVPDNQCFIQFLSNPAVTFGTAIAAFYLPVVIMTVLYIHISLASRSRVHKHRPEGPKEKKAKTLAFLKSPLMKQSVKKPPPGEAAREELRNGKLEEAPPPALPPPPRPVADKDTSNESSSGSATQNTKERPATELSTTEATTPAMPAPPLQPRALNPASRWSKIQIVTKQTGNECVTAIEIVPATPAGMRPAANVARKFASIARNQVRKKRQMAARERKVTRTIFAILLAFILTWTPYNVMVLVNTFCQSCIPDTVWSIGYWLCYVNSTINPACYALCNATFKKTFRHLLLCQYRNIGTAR
Nature of the assay: M4 GTPγS PAM assay. The format is biochemical. To be noted: membranes of CHO-K1 cells stably expressing human M4; EC20 acetylcholine 40 nM. The procedure: The M4 GTPγS PAM method was used. Membranes were prepared for GTPgS binding assays from CHO-K1 cells stably expressing human M4 receptor. Briefly, cells were grown in 5-layer cell culture flasks. Cells were washed with 50 mL of PBS and then dissociated with 0.05% trypsin. Dissociated cells were then collected by centrifugation at 650×g for 8 minutes at 4° C. Pellets were washed again in PBS by centrifugation and resuspended in 30 mL of 20 mM HEPES, 10 mM EDTA, pH 7.4. After sitting on ice for 30 min, membranes were collected by centrifugation at 50000×g for 15′ at 4° C., resuspended in 30 mL of 20 mM HEPES, 0.1 mM EDTA, pH 7.4 and collected again by centrifugation. Pellets were then washed twice by centrifugation in 30 mL of 20 mM HEPES, pH 7.4, and stored at −80° C. until the day of the assay. On the day of the assay, pellets were thawed on ice and resuspended in 1 mL of 20 mM HEPES, pH 7.4, 10 mM MgCl2, 100 mM NaCl using dounce homogenization. Membrane protein concentration is determined by BCA protein assay (Promega, Madison, WI) according to Promega guidelines.
On the day of the assay, serial dilutions of test PAM compounds were brought up in assay buffer (20 mM HEPES, 10 mM MgCl2, 100 mM NaCl) at 4× final assay concentration. […] of membrane homogenates (containing […] of membrane protein) were prepared in assay buffer supplemented with GDP at 4× final assay concentration (final assay concentration of GDP is 5 μM for M2 and 0.1 μM for M4) and dispensed into 96 well polypropylene, U-bottom Greiner plates. […] of vehicle or test PAM compound at 4× of final assay concentration diluted in the assay buffer were added to membrane and plates are incubated for 10-15 minutes at room temperature with gentle shaking. Then, […] of EC20 acetylcholine in assay buffer at 4× final assay concentration was added to assay plates (EC20 final assay concentrations was 40 nM for human M4).
Plates were then incubated, with shaking, for an additional 10-15 minutes. 25 mL of 0.4 nM ^35S-GTP (Perkin Elmer, Waltham, MA) in assay buffer was added to assay mixtures. The binding reaction is left on the shaker for 1 hour at room temperature. Membranes in assay reactions were then transferred to GF/C filter plates (Unifilter, Perkin Elmer) and washed three times using a FilterMate Harvester (Perkin Elmer) with cold assay buffer containing no GDP. Filter plates were then dried at 40° C. overnight followed by the addition of […] of Beta Plate Scintillation liquid. Plates are top and bottom sealed before being read on TopCount scintillation counter (Perkin Elmer, Waltham, MA).

Each structure is given as a SMILES string. Some results are limits rather than exact numbers.

As usually defined, the EC50 is the midpoint of the concentration-response curve. Lower therefore signals a more potent agent.

For the compound `Cc1c2c(n(C)c(=O)c1F)CN(C(=O)CC1CC1c1ccc(C(F)(F)F)cc1)C2` (stereo not shown) [Compound I-26], the EC50 on rM4 receptors and on human M4 receptor was less than 100 nM each time.
On to `Cc1cc(=O)n(C)c2c1CN(C(=O)CC1CC1c1ccc(C(F)(F)F)cc1)C2` (single isomer, unassigned) [Compound I-7], for which the values for the EC50 at rM4 receptors and at human M4 receptor were 100 to 500 nM and less than 100 nM, respectively.

The values are drawn from US20260209219A1, “SUBSTITUTED TETRAHYDROPYRROLO-PYRIDINONE COMPOUNDS AND THEIR USE IN TREATING MEDICAL CONDITIONS” (Karuna Therapeutics, Inc., priority 2022, published 2026).
